Assay results: ChEMBL document CHEMBL4428082, “Aligning Potency and Pharmacokinetic Properties for Pyridine-Based NCINIs” (ACS Med Chem Lett, 2016)
pEC50, pIC50: −log10 of the molar value. ≈ marks a conversion by molar mass, not a printed value.

What was measured:
[1] = Half life in human liver microsomes; assay type: ADME, Microsome
[2] = Inhibition of HIV NL4.3 integrase T124/T125 double mutant assessed as reduction in viral replication by luciferase reporter gene assay; parameters: species or system Human immunodeficiency virus
[3] = Solubility of the compound at pH 6.8; assay type: physicochemical; settings: buffer
[4] = Inhibition of HIV NL4.3 integrase T124/A125 double mutant infected in PBMC assessed as reduction in viral replication by p24 ELISA; settings: Human immunodeficiency virus 1, NL4.3
[5] = molecular target: Cytochrome P450 2D6 (Homo sapiens, UniProt P10635); experiment: Inhibition of CYP2D6 (unknown origin); assay type: ADME
Sequence of Cytochrome P450 2D6 (P10635 whole entry): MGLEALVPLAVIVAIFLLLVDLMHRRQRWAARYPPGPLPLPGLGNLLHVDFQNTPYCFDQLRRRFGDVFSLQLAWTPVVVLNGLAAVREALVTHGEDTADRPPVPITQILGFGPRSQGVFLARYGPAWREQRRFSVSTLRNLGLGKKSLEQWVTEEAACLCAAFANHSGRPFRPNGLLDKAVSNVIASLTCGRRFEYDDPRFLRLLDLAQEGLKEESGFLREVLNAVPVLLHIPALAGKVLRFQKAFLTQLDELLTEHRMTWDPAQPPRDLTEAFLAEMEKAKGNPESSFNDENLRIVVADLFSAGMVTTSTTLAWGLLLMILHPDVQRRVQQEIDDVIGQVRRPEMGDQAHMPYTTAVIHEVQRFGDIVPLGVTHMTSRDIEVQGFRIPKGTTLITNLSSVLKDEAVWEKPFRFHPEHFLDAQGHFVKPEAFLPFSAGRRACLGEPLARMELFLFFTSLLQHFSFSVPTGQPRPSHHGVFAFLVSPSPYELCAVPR

[6] = Volume of distribution at steady state in rat; assay type: ADME; settings: in vivo, read-out: Vdss
[7] = Total drug excretion in rat bile assessed as acyl glucuronide of parent compound at 3 hrs; assay type: ADME, tissue-based; settings: in vivo
[8] = Inhibition of HIV NL4.3 integrase A124/T125 double mutant infected in PBMC assessed as reduction in viral replication by p24 ELISA; settings: Human immunodeficiency virus 1, NL4.3
[9] = Clearance in rat hepatocytes relative to hepatic blood flow; assay type: ADME, cell-based, Hepatocyte; settings: read-out: CLH
[10] = Clearance in dog hepatocytes relative to hepatic blood flow; assay type: ADME, cell-based, Canis lupus familiaris, Hepatocyte; settings: read-out: CLH
[11] = Half life in rat; assay type: ADME; settings: in vivo
[12] = molecular target: Cytochrome P450 3A4 (Homo sapiens, UniProt P08684); experiment: Inhibition of CYP3A4 (unknown origin); assay type: ADME
Sequence of Cytochrome P450 3A4 (P08684 whole entry): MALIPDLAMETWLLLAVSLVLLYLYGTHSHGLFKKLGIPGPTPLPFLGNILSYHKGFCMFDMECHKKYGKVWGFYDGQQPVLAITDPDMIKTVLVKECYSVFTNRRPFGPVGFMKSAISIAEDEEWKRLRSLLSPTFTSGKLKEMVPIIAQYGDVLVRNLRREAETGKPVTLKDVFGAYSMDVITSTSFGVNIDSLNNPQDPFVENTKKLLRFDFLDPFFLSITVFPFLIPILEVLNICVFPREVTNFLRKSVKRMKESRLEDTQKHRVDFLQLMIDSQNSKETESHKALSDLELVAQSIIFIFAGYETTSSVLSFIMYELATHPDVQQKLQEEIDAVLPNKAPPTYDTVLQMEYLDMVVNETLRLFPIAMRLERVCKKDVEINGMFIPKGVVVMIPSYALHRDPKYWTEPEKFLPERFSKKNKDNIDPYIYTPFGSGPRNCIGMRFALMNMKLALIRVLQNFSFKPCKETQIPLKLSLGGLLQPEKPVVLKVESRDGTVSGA

[13] = Apparent permeability in human Caco2 cells; assay type: ADME, cell-based; settings: Caco-2
[14] = Clearance in iv dosed dog relative to hepatic blood flow; assay type: ADME, organism-based, Canis lupus familiaris; settings: in vivo
[15] = Inhibition of HIV NL4.3 integrase T124/T125 double mutant infected in PBMC assessed as reduction in viral replication by p24 ELISA; settings: Human immunodeficiency virus 1, NL4.3
[16] = molecular target: Cytochrome P450 2C9 (Homo sapiens, UniProt P11712); experiment: Inhibition of CYP2C9 (unknown origin); assay type: ADME
Sequence of Cytochrome P450 2C9 (P11712 whole entry): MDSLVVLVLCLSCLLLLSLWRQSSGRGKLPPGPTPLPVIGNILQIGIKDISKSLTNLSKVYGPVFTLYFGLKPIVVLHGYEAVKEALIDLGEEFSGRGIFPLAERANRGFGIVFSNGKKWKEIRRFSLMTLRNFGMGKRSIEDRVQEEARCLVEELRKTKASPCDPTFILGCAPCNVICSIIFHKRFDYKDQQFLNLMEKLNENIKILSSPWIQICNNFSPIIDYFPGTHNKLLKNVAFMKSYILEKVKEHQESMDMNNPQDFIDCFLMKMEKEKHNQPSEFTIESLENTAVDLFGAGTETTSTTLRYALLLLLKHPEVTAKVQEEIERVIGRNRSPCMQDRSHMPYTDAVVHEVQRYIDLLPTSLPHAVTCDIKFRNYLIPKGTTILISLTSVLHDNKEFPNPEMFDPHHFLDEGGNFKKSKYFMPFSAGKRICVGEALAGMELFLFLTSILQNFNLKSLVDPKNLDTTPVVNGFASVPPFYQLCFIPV

[17] = Clearance in iv dosed rat relative to hepatic blood flow; assay type: ADME, organism-based; settings: in vivo
[18] = Half life in bile duct cannulated rat; assay type: ADME; settings: in vivo
[19] = Inhibition of HIV NL4.3 integrase N124/A125 double mutant infected in PBMC assessed as reduction in viral replication by p24 ELISA; settings: Human immunodeficiency virus 1, NL4.3
[20] = Clearance in human hepatocytes relative to hepatic blood flow; assay type: ADME, cell-based, Hepatocyte; settings: read-out: CLH
[21] = molecular target: Cytochrome P450 2C19 (Homo sapiens, UniProt P33261); experiment: Inhibition of CYP2C19 (unknown origin); assay type: ADME
Sequence of Cytochrome P450 2C19 (P33261 whole entry): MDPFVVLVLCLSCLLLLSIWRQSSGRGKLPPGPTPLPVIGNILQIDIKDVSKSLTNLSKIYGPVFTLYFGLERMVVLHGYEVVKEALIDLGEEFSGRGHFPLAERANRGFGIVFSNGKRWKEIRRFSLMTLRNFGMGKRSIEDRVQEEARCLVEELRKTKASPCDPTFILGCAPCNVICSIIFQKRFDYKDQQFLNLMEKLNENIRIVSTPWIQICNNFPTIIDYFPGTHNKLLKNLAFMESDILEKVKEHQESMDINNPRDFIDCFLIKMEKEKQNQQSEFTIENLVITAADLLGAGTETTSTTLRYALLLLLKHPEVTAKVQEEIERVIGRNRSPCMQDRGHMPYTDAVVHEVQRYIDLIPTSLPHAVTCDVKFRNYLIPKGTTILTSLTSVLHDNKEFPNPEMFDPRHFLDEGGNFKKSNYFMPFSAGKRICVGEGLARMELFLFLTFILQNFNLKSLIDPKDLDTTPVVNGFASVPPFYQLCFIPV

[22] = Inhibition of HIV NL4.3 integrase N124/T125 double mutant assessed as reduction in viral replication by luciferase reporter gene assay; parameters: species or system Human immunodeficiency virus
[23] = Inhibition of HIV NL4.3 integrase A124/A125 double mutant infected in PBMC assessed as reduction in viral replication by p24 ELISA; settings: Human immunodeficiency virus 1, NL4.3
[24] = tested on: Human immunodeficiency virus; experiment: Ratio of EC50 for HIV1 NL4.3 integrase N124/T125 double mutant in presence of human serum to EC50 for HIV1 NL4.3 integrase N124/T125 double mutant in absence of human serum
[25] = Inhibition of HIV NL4.3 integrase N124/T125 double mutant infected in PBMC assessed as reduction in viral replication by p24 ELISA; settings: Human immunodeficiency virus 1, NL4.3
[26] = Clearance in iv dosed monkey relative to hepatic blood flow; assay type: ADME, organism-based, Macaca mulatta; settings: rhesus monkey, in vivo
[27] = molecular target: T1, Cytochrome P450 1A2 (Homo sapiens, UniProt P05177); experiment: Inhibition of CYP1A2 (unknown origin); assay type: ADME
T1 sequence (P05177 whole entry): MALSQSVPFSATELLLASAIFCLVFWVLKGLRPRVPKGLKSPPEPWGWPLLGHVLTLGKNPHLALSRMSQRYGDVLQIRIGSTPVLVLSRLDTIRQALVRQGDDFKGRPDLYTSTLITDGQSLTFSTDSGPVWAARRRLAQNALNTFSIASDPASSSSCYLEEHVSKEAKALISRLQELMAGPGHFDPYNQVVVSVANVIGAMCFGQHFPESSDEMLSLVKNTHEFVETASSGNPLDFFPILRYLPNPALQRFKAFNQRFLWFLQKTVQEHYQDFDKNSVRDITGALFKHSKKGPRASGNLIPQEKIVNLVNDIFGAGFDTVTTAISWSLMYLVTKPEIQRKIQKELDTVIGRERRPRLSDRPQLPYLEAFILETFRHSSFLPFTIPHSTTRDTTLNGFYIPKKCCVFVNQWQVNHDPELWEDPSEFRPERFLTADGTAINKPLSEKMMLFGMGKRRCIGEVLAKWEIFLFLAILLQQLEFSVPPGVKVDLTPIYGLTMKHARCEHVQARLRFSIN

[28] = Clearance in monkey hepatocytes relative to hepatic blood flow; assay type: ADME, cell-based, Macaca mulatta, Hepatocyte; settings: rhesus monkey, read-out: CLH
[29] = Clearance in rat relative to hepatic blood flow; assay type: ADME; settings: in vivo

SMILES: Cc1cccc(NC(=O)c2nc(C)c([C@H](OC(C)(C)C)C(=O)O)c(-c3ccc(Cl)cc3)c2C)c1
- half-life [1]: > 5 h
- pEC50 [2]: 8.43

SMILES: Cc1nc(C(=O)N[C@H]2CC[C@H](C)CC2)c(C)c(-c2ccc3c(c2C)N(C)CCO3)c1[C@H](OC(C)(C)C)C(=O)O
- solubility [3]: 930 µg/mL (≈ 1730 µM)
- pEC50 [4]: 9.40
- half-life [1]: > 5 h
- pIC50 [5]: < 4.52
- Vd [6]: 1.4 L/kg
- Drug excretion [7]: 20%
- pEC50 [8]: 9.22
- hepatic extraction ratio [9]: 0.07
- hepatic extraction ratio [10]: 0.31
- half-life [11]: 1.3 h
- pIC50 [12]: < 4.52
- Papp [13]: 39.8 ×10⁻⁶ cm/s
- CL [14]: 10%
- pEC50 [15]: 9.30
- pIC50 [16]: < 4.52
- CL [17]: 23%
- half-life [18]: 1.3 h
- pEC50 [19]: 7.38
- hepatic extraction ratio [20]: 0.17
- pEC50 [2]: 8.60
- pIC50 [21]: < 4.52
- pEC50 [22]: 6.77
- pEC50 [23]: 9.05
- Ratio EC50 [24]: 2.9
- pEC50 [25]: 7.57
- CL [26]: 30%
- pIC50 [27]: < 4.52
- hepatic extraction ratio [28]: 0.31

SMILES: Cc1ccc2nc(-c3nc(C)c([C@H](OC(C)(C)C)C(=O)O)c(-c4ccc5c(c4C)N(C)CCO5)c3C)n(C)c2c1
- half-life [1]: 1.58 h
- pEC50 [2]: 8.52
- pEC50 [22]: 7.04
- Ratio EC50 [24]: 3.9

SMILES: Cc1nc(NC(=O)c2ccccc2OC(F)(F)F)c(C)c(-c2ccc3c(c2C)N(C)CCO3)c1[C@H](OC(C)(C)C)C(=O)O
- half-life [1]: > 5 h
- pEC50 [2]: 8.33
- Ratio EC50 [24]: 2.6

SMILES: Cc1nc(NC(=O)c2ccccc2)c(C)c(-c2ccc(Cl)cc2)c1[C@H](OC(C)(C)C)C(=O)O
- pEC50 [2]: 7.82
- pEC50 [22]: 5.96

SMILES: Cc1nc(-c2nc3cccc(C)c3n2C)c(C)c(-c2ccc(Cl)cc2)c1[C@H](OC(C)(C)C)C(=O)O
- half-life [1]: 2 h
- pEC50 [2]: 8.52
- Ratio EC50 [24]: 3.2

SMILES: Cc1nc(C(=O)NC(C)(C)C2CC2)c(C)c(-c2ccc(Cl)cc2)c1[C@H](OC(C)(C)C)C(=O)O
- half-life [1]: 3.63 h
- pEC50 [2]: 8.36
- pEC50 [22]: 6.25
- Ratio EC50 [24]: 1.5

SMILES: Cc1nc(C(=O)N[C@H]2CC[C@H](C)CC2)c(C)c(-c2ccc3c(c2)NCCO3)c1[C@H](OC(C)(C)C)C(=O)O
- half-life [1]: > 5 h
- pEC50 [2]: 7.57
- pEC50 [22]: 6.55
- Ratio EC50 [24]: 2.1

SMILES: Cc1nc(NC(=O)c2ccccc2OC(F)(F)F)c(C)c(-c2ccc3c(c2)N(C)CCO3)c1[C@H](OC(C)(C)C)C(=O)O
- half-life [1]: > 5 h
- pEC50 [2]: 8.13
- pEC50 [22]: 6.66
- Ratio EC50 [24]: 3.4

SMILES: Cc1nc(-c2nc3ccccc3n2C)c(C)c(-c2ccc3c(c2C)N(C)CCO3)c1[C@H](OC(C)(C)C)C(=O)O
- solubility [3]: > 1000 µg/mL
- half-life [1]: 3.25 h
- Vd [6]: 1.6 L/kg
- Drug excretion [7]: 70%
- hepatic extraction ratio [9]: 0.19
- Papp [13]: 10.6 ×10⁻⁶ cm/s
- CL [17]: 24%
- hepatic extraction ratio [20]: 0.24
- pEC50 [2]: 8.48
- pEC50 [22]: 7.23
- Ratio EC50 [24]: 4.9

SMILES: Cc1nc2ccccc2c(-c2ccc3c4c(ccnc24)CCO3)c1[C@H](OC(C)(C)C)C(=O)O [BI-224436]
- pEC50 [2]: 7.72
- CL [29]: 0.7%
- pEC50 [22]: 7.52

SMILES: Cc1nc(C(=O)Nc2ccccc2)c(C)c(-c2ccc(Cl)cc2)c1[C@H](OC(C)(C)C)C(=O)O
- pEC50 [2]: 7.92
- pEC50 [22]: 6.17

SMILES: Cc1ccc2[nH]c(-c3nc(C)c([C@H](OC(C)(C)C)C(=O)O)c(-c4ccc(Cl)cc4)c3C)nc2c1
- half-life [1]: 2.77 h
- pEC50 [2]: 8.96
- Ratio EC50 [24]: 13

SMILES: Cc1nc(C(=O)N[C@H]2CC[C@H](C)CC2)c(C)c(-c2ccc3c(c2C)NCCO3)c1[C@H](OC(C)(C)C)C(=O)O
- half-life [1]: 3.12 h
- pEC50 [2]: 8.12
- pEC50 [22]: 6.89
- Ratio EC50 [24]: 3

SMILES: Cc1nc(C(=O)NC2CCN(C)CC2)c(C)c(-c2ccc(Cl)cc2)c1[C@H](OC(C)(C)C)C(=O)O
- pEC50 [2]: 5.66

SMILES: Cc1nc(-c2nc3ccc(F)cc3n2C)c(C)c(-c2ccc3c(c2C)N(C)CCO3)c1[C@H](OC(C)(C)C)C(=O)O
- half-life [1]: 1.58 h
- pEC50 [2]: 8.52
- pEC50 [22]: 6.92
- Ratio EC50 [24]: 1.4

SMILES: Cc1nc(C(=O)NCc2ccccc2)c(C)c(-c2ccc3c(c2)CCCO3)c1[C@H](OC(C)(C)C)C(=O)O
- pEC50 [2]: 7.85
- pEC50 [22]: 6.70
- Ratio EC50 [24]: 23

SMILES: Cc1nc(C(=O)N[C@H]2CC[C@H](O)CC2)c(C)c(-c2ccc(Cl)cc2)c1[C@H](OC(C)(C)C)C(=O)O
- half-life [1]: > 5 h
- pEC50 [2]: 6.03

SMILES: Cc1nc(C(=O)N[C@H]2CC[C@H](C)CC2)c(C)c(-c2ccc(Cl)cc2)c1[C@H](OC(C)(C)C)C(=O)O
- half-life [1]: 3.07 h
- pEC50 [2]: 8.14
- pEC50 [22]: 6.24
- Ratio EC50 [24]: 3.7

SMILES: Cc1nc(C(=O)N[C@H]2CC[C@H](C)CC2)c(C)c(-c2ccc3c(c2)N(C)CCO3)c1[C@H](OC(C)(C)C)C(=O)O
- half-life [1]: > 5 h
- pEC50 [2]: 8.17
- pEC50 [22]: 6.22
- Ratio EC50 [24]: 4.1

SMILES: Cc1nc(C(=O)N[C@H]2CC[C@H](C)CC2)c(C)c(-c2ccc3c4c(cccc24)CCO3)c1[C@H](OC(C)(C)C)C(=O)O
- half-life [1]: > 5 h
- pEC50 [2]: 7.80
- pEC50 [22]: < 5.60
- Ratio EC50 [24]: 2.9

SMILES: Cc1noc(C)c1-c1ccc(-c2nc(C)c([C@H](OC(C)(C)C)C(=O)O)c(-c3ccc4c(c3)CCCO4)c2C)cc1
- pEC50 [2]: 8.26
- pEC50 [22]: 6.41
- Ratio EC50 [24]: 7.8

SMILES: Cc1noc(C)c1-c1ccc(-c2nc(C)c([C@H](OC(C)(C)C)C(=O)O)c(-c3ccc(Cl)cc3)c2C)cc1
- pEC50 [2]: 8.11
- CL [29]: 0.6%
- pEC50 [22]: 6.09

SMILES: Cc1nc(-c2cn(-c3ccccc3)nn2)c(C)c(-c2ccc3c(c2)CCCO3)c1[C@H](OC(C)(C)C)C(=O)O
- pEC50 [2]: 8.33
- pEC50 [22]: 6.51
- Ratio EC50 [24]: 17

SMILES: Cc1nc(C(=O)N[C@H]2CC[C@H](C)CC2)c(C)c(-c2ccc3c(c2)CCCO3)c1[C@H](OC(C)(C)C)C(=O)O
- half-life [1]: 0.817 h
- pEC50 [2]: 8.38
- pEC50 [22]: 6.66
- Ratio EC50 [24]: 4.1
